Results reported in ChEMBL document CHEMBL1201862, “PubChem BioAssay data set” (2004).
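96-well plates; 48 h exposure; 5 concentrations. Endpoints by linear interpolation between flanking doses. Not reached: highest tested concentration assigned. GI50 is the concentration that inhibits growth by half.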 The source made the active and inactive calls. Cut-off read from the data, not from the text of the source: active = GI50 up to about 1.1 µM and inactive = higher.

Tests used:
Assay in all cases: NCI-60 cell line screen, 48 h
786-0 = tested on: 786-0
A498 = tested on: A498
ACHN = tested on: ACHN
CAKI-1 = tested on: CAKI-1
DU-145 = tested on: DU-145
EKVX = tested on: EKVX
HCC 2998 = tested on: HCC 2998
IGROV-1 = tested on: IGROV-1
KM12 = tested on: KM12
MCF7 = tested on: MCF7
MDA-MB-231 = tested on: MDA-MB-231
MDA-N = tested on: MDA-N
MOLT-4 = tested on: MOLT-4
NCI-H226 = tested on: NCI-H226
NCI-H522 = tested on: NCI-H522
NCI/ADR-RES = tested on: NCI/ADR-RES
OVCAR-8 = tested on: OVCAR-8
RXF 393 = tested on: RXF 393
SF-295 = tested on: SF-295
U-251 = tested on: U-251

Row | SMILES | GI50 (786-0) | GI50 (A498) | GI50 (ACHN) | GI50 (CAKI-1) | GI50 (DU-145) | GI50 (EKVX) | GI50 (HCC 2998) | GI50 (IGROV-1) | GI50 (KM12) | GI50 (MCF7) | GI50 (MDA-MB-231) | GI50 (MDA-N) | GI50 (MOLT-4) | GI50 (NCI-H226) | GI50 (NCI-H522) | GI50 (NCI/ADR-RES) | GI50 (OVCAR-8) | GI50 (RXF 393) | GI50 (SF-295) | GI50 (U-251)
1 | CCOC(=O)C1=C(C)N(Cc2ccccc2)C2(O)C=CC(=O)C3C(=O)N(c4ccccc4)C(=O)C132 (stereo not given) | 1.59 µM (inactive) | 14.5 µM (inactive) | 1.63 µM (inactive) | 1.53 µM (inactive) | 2.15 µM (inactive) | 10.3 µM (inactive) | 1.67 µM (inactive) | 2 µM (inactive) | 1.99 µM (inactive) | 2.25 µM (inactive) | 3.96 µM (inactive) | 3.61 µM (inactive) | 2.11 µM (inactive) | 2.45 µM (inactive) | 1.57 µM (inactive) | 2.75 µM (inactive) | 1.23 µM (inactive) | 1.35 µM (inactive) | 3.58 µM (inactive) | 2.69 µM (inactive)
2 | C=C1C(=O)OC2CC3(C)OC3CC/C(C)=C/C(OC(C)=O)C12 (stereo not given) | 4.6 µM (inactive) | 15.8 µM (inactive) | 11.2 µM (inactive) | 2.13 µM (inactive) | 15.1 µM (inactive) | 16.9 µM (inactive) | 16.9 µM (inactive) | 17.1 µM (inactive) | 15.1 µM (inactive) | 4.59 µM (inactive) | 12.4 µM (inactive) | 6.12 µM (inactive) | 3.37 µM (inactive) | 7.45 µM (inactive) | 1.04 µM (active) | 11.3 µM (inactive) | 4.71 µM (inactive) | 4.79 µM (inactive) | 14 µM (inactive) | 18.6 µM (inactive)
3 | CC12Cc3cc4c(cc3C1(c1ccc([N+](=O)[O-])cc1)OCCO2)OCO4 (stereo not given) | 47.9 µM (inactive) | > 100 µM (inactive) | 28 µM (inactive) | > 100 µM (inactive) | 87.1 µM (inactive) | 37.2 µM (inactive) | > 100 µM (inactive) | 23.1 µM (inactive) | > 100 µM (inactive) | 76.7 µM (inactive) | 14.9 µM (inactive) | > 100 µM (inactive) | > 100 µM (inactive) | 26.2 µM (inactive) | 91 µM (inactive) | 95.5 µM (inactive) | 22.4 µM (inactive) | 16.4 µM (inactive) | 25.2 µM (inactive) | 26.9 µM (inactive)
4 | O=S1(=O)c2cnccc2N=C(NCc2cccc3ccccc23)N1c1ccccc1 | 15 µM (inactive) | > 100 µM (inactive) | 35.9 µM (inactive) | > 100 µM (inactive) | > 100 µM (inactive) | 36.4 µM (inactive) | 38.4 µM (inactive) | > 61.5 µM (inactive) | > 100 µM (inactive) | 36.6 µM (inactive) | > 43 µM (inactive) | 13.2 µM (inactive) | 12.2 µM (inactive) | > 100 µM (inactive) | 30.6 µM (inactive) | 97.5 µM (inactive) | > 93.1 µM (inactive) | > 43.9 µM (inactive) | 62.8 µM (inactive) | 43.8 µM (inactive)
5 | Cc1ncc(-c2nnnn2-c2ccccc2)c(C(=O)O)n1 | > 100 µM (inactive) | > 100 µM (inactive) | > 100 µM (inactive) | > 100 µM (inactive) | > 100 µM (inactive) | > 100 µM (inactive) | > 100 µM (inactive) | > 100 µM (inactive) | > 100 µM (inactive) | > 100 µM (inactive) | > 100 µM (inactive) | > 100 µM (inactive) | > 100 µM (inactive) | > 100 µM (inactive) | > 100 µM (inactive) | > 100 µM (inactive) | > 100 µM (inactive) | > 100 µM (inactive) | > 100 µM (inactive) | > 100 µM (inactive)
6 | CC(C)(C)OC(=O)N(O)CCCn1cnc2c(NC3CC3)ncnc21 | > 100 µM (inactive) | > 100 µM (inactive) | > 100 µM (inactive) | > 100 µM (inactive) | > 100 µM (inactive) | > 100 µM (inactive) | > 100 µM (inactive) | 75.3 µM (inactive) | > 100 µM (inactive) | > 100 µM (inactive) | > 100 µM (inactive) | > 100 µM (inactive) | > 100 µM (inactive) | > 100 µM (inactive) | > 100 µM (inactive) | > 100 µM (inactive) | > 100 µM (inactive) | > 100 µM (inactive) | > 100 µM (inactive) | > 100 µM (inactive)
7 | Cc1c(C)c2c(c(N)c1C#N)C(=O)N(N)C2=O | 87.9 µM (inactive) | 40.4 µM (inactive) | > 100 µM (inactive) | > 100 µM (inactive) | > 100 µM (inactive) | > 100 µM (inactive) | > 100 µM (inactive) | > 100 µM (inactive) | > 100 µM (inactive) | > 100 µM (inactive) | > 100 µM (inactive) | > 100 µM (inactive) | 61.7 µM (inactive) | 78.7 µM (inactive) | > 100 µM (inactive) | > 100 µM (inactive) | > 100 µM (inactive) | > 100 µM (inactive) | > 100 µM (inactive) | > 100 µM (inactive)
8 | COc1ccc(CCNC(=O)Cc2ccccc2CO)cc1OC | > 100 µM (inactive) | > 100 µM (inactive) | > 100 µM (inactive) | > 100 µM (inactive) | > 100 µM (inactive) | > 100 µM (inactive) | > 100 µM (inactive) | > 100 µM (inactive) | > 100 µM (inactive) | > 100 µM (inactive) | > 100 µM (inactive) | > 100 µM (inactive) | > 100 µM (inactive) | > 100 µM (inactive) | > 100 µM (inactive) | > 100 µM (inactive) | > 100 µM (inactive) | > 100 µM (inactive) | > 100 µM (inactive) | > 100 µM (inactive)
9 | CC(=O)O[C@@H]1C[C@]2(C(=O)c3ccccc3)C(=O)C(=O)S[C@]12c1ccccc1 | 35.5 µM (inactive) | 40.2 µM (inactive) | 62.2 µM (inactive) | 42.9 µM (inactive) | 51.8 µM (inactive) | 52.2 µM (inactive) | 26.7 µM (inactive) | 45.4 µM (inactive) | 41.1 µM (inactive) | 30 µM (inactive) | 58.1 µM (inactive) | 30 µM (inactive) | 28.4 µM (inactive) | 52.6 µM (inactive) | 29.6 µM (inactive) | 41.6 µM (inactive) | 36.4 µM (inactive) | 25.9 µM (inactive) | 65.9 µM (inactive) | 31.3 µM (inactive)
10 | N#CC(C#N)[C@@H]1CCC=C(Sc2ccccc2)[C@H]1Sc1ccccc1 | 2.17 µM (inactive) | 13.5 µM (inactive) | 2.34 µM (inactive) | 2.65 µM (inactive) | 2.72 µM (inactive) | 4.54 µM (inactive) | 2.86 µM (inactive) | 2.29 µM (inactive) | 3 µM (inactive) | 2.95 µM (inactive) | 4.05 µM (inactive) | 1.32 µM (inactive) | 2.38 µM (inactive) | 1.72 µM (inactive) | 2.19 µM (inactive) | 2.72 µM (inactive) | 2.7 µM (inactive) | 1.83 µM (inactive) | 6.44 µM (inactive) | 5.81 µM (inactive)
11 | O=C(O)C1OC(n2cc(F)c(=O)[nH]c2=O)CC1O (stereo not given) | 15.6 µM (inactive) | 10.1 µM (inactive) | 2.46 µM (inactive) | > 39.5 µM (inactive) | 24.3 µM (inactive) | > 82.8 µM (inactive) | 0.574 µM (active) | > 100 µM (inactive) | > 95.9 µM (inactive) | 0.9 µM (active) | > 39.1 µM (inactive) | > 97.3 µM (inactive) | 7.73 µM (inactive) | > 83.9 µM (inactive) | 25.9 µM (inactive) | 13.2 µM (inactive) | 17.5 µM (inactive) | > 87.9 µM (inactive) | 5.47 µM (inactive) | 35.2 µM (inactive)
12 | CCOC(=O)C(C(=O)OCC)C(NC(=O)Nc1cc(C(F)(F)F)ccc1OC)(C(F)(F)F)C(F)(F)F | 24.6 µM (inactive) | 16.5 µM (inactive) | 29.1 µM (inactive) | 29.4 µM (inactive) | 40.3 µM (inactive) | 70.3 µM (inactive) | 25.6 µM (inactive) | 25.4 µM (inactive) | 26.9 µM (inactive) | 37.2 µM (inactive) | 17.4 µM (inactive) | 33.2 µM (inactive) | 24 µM (inactive) | 25.5 µM (inactive) | 22.3 µM (inactive) | 28.6 µM (inactive) | 31.6 µM (inactive) | 30.3 µM (inactive) | 23.2 µM (inactive) | 29.2 µM (inactive)
